Reference: paper PMC12649549, “Sequence Permutation Generated Lysine and Tryptophan-Rich Antimicrobial Peptides with Enhanced Therapeutic Index” (Antibiotics, 2025)
Read-outs that look alike come from different tables or passages of the source.

Experiments:
[1] = tested on: Escherichia coli (ATCC 25922)
Experimental: (§1) The antibacterial and salt-resistant activity of the peptides was tested using Escherichia coli (ATCC 25922), Pseudomonas aeruginosa Migula (ATCC 27853), Acinetobacter sp. (BCRC number 14B0091, BCRC number 14B0097, and BCRC number 14B0100), and Staphylococcus aureus sp. strains (ATCC 25923, ATCC 33591, ATCC 33592, ATCC 33593, and ATCC 6538). All bacteria were obtained from the Food Industry Research and Development Institute (Hsinchu, Taiwan) and cultured in sterilized Müller-Hinton (MH) broth at 37 °C and 200 rpm for 8 h. The inoculum concentrations were determined by measuring the optical density at 600 nm (OD 600 = 1, approximately 10^8 CFU/mL) using an Ultrospec 2100 pro UV-Visible spectrophotometer (Biochrom Ltd., Cambridge, UK) after 8 h of culture.
(§2) The antibacterial activities of the peptides in Müller-Hinton (MH) broth and modified LYM broth were determined using the standard broth microdilution method as per Clinical and Laboratory Standards Institute (CLSI) guidelines. The LYM broth was prepared with specific components and adjusted to different conditions, including varying concentrations of NaCl and MgCl2, and different pH levels. To prepare the LYM broth, 5.4 mM KCl, 5.6 mM Na2HPO4, 0.5 mM MgSO4, and 1.0 mM sodium citrate were added. Additionally, 0.4 mg of ZnCl2, 2.0 mg of FeCl3·6H2O, 0.1 mg of CuSO4·5H2O, 0.1 mg of MnSO4·H2O, 0.1 mg of Na2B4O7∙10H2O, 700 mg of amino acid mixtures without tryptophan (Takara Bio Inc., San Jose, CA, USA), and 20 mg of L-tryptophan were added per liter of medium. The pH was adjusted to 7.4, and a vitamin mixture (100X, Sigma) and glucose concentration of 2% were added. For different conditions of LYM broth, NaCl concentrations of 300, 200, 150, and 50 mM, MgCl2 concentrations of 2.5, 1.5, and 0.5 mM, and pH levels of 6.5, 5.5, and 4.5 were adjusted. Bacterial strains were incubated in MH broth overnight, regrown, and diluted to a final concentration of 5 × 10^5 CFU/mL. Peptides were added to each well at final concentrations of 50, 25, 12.5, 6.25, 3.13, 1.56, and 0.78 µg/mL, and 99 µL of diluted microbes was loaded into each well of a polypropylene 96-well plate. […] The Morpheus HeatMap software (https://software.broadinstitute.org/morpheus/) was used to display MIC values on a color scale. All experiments were independently repeated three times.

[2] = tested on: A. baumannii 14B00100 (Acinetobacter sp., BCRC number 14B0100)
Experimental: as §1, §2

[3] = tested on: A. baumannii 14B0091 (Acinetobacter sp., BCRC number 14B0091)
Experimental: as §1, §2

[4] = tested on: S. aureus ATCC 33591
Experimental: as §1, §2

[5] = tested on: S. aureus ATCC 6538
Experimental: as §1, §2

[6] = tested on: S. aureus ATCC 25923
Experimental: as §1, §2

[7] = tested on: Gram-negative bacteria; assay: Geometric mean MIC and therapeutic index, Gram-negative bacteria; format: cell-based
Experimental: In this study, we aimed to investigate the potential of W5K series peptides for therapeutic use. To evaluate their efficacy for antibacterial therapy, we used the Therapeutic Index (TI) as a measure of their cell selectivity. The TI was calculated as the ratio of the concentration causing 10% hemolysis of human red blood cells (HC10) to the geometric mean minimum inhibitory concentration (GM) of the peptides against both Gram-negative and Gram-positive bacteria. This parameter was used to quantitatively assess the balance between antibacterial potency and cytotoxicity among the W5K derivatives.
as §2

[8] = LYM broth, 0 mM NaCl, 16 h, 37 °C
[9] = LYM broth, 50 mM NaCl, 16 h, 37 °C
[10] = LYM broth, 100 mM NaCl, 16 h, 37 °C
[11] = LYM broth, 200 mM (NaCl), 16 h, 37 °C
[12] = LYM broth, 300 mM (NaCl), 16 h, 37 °C
[13] = MH broth, 5 × 10^5 CFU/mL, 16 h, 37 °C, repeated three times

Ac-KKKKWRKWLKWLA-NH2 [Peptide W5K11]
MIC [1, 8]: 1.56 µg/mL | MIC ([1]; LYM broth, 0.5 mM MgCl2): 3.13 µg/mL | MIC ([1]; LYM broth, 1.5 mM MgCl2): 3.13 µg/mL | MIC ([1]; LYM broth, 2.5 mM MgCl2): 3.13 µg/mL | MIC [1, 9]: 1.56 µg/mL | MIC [1, 10]: 3.13 µg/mL | MIC [1, 11]: 3.13 µg/mL | MIC [1, 12]: 6.25 µg/mL | MIC ([1]; LYM broth, pH 4.5): 1.56 µg/mL | MIC ([1]; LYM broth, pH 5.5): 1.56 µg/mL | MIC ([1]; LYM broth, pH 6.5): 1.56 µg/mL | MIC [1, 13]: 6.25 µg/mL | MIC [2, 8]: 0.78 µg/mL | MIC ([2]; LYM broth, 0.5 mM MgCl2): 1.56 µg/mL | MIC ([2]; LYM broth, 1.5 mM MgCl2): 1.56 µg/mL | MIC ([2]; LYM broth, 2.5 mM MgCl2): 1.56 µg/mL | MIC [2, 9]: 0.78 µg/mL | MIC [2, 10]: 0.78 µg/mL | MIC [2, 11]: 0.78 µg/mL | MIC [2, 12]: 0.78 µg/mL | MIC ([2]; LYM broth, pH 4.5): 1.56 µg/mL | MIC ([2]; LYM broth, pH 5.5): 1.56 µg/mL | MIC ([2]; LYM broth, pH 6.5): 1.56 µg/mL | MIC [2, 13]: 1.56 µg/mL | MIC [3, 8]: 1.56 µg/mL | MIC ([3]; LYM broth, 0.5 mM MgCl2): 1.56 µg/mL | MIC ([3]; LYM broth, 1.5 mM MgCl2): 1.56 µg/mL | MIC ([3]; LYM broth, 2.5 mM MgCl2): 1.56 µg/mL | MIC [3, 9]: 1.56 µg/mL | MIC [3, 10]: 1.56 µg/mL | MIC [3, 11]: 1.56 µg/mL | MIC [3, 12]: 1.56 µg/mL | MIC ([3]; LYM broth, pH 4.5): 1.56 µg/mL | MIC ([3]; LYM broth, pH 5.5): 1.56 µg/mL | MIC ([3]; LYM broth, pH 6.5): 1.56 µg/mL | MIC [3, 13]: 0.78 µg/mL | MIC [4, 8]: 3.13 µg/mL | MIC ([4]; LYM broth, 0.5 mM MgCl2): 3.13 µg/mL | MIC ([4]; LYM broth, 1.5 mM MgCl2): 3.13 µg/mL | MIC ([4]; LYM broth, 2.5 mM MgCl2): 3.13 µg/mL | MIC [4, 9]: 3.13 µg/mL | MIC [4, 10]: 3.13 µg/mL | MIC [4, 11]: 6.25 µg/mL | MIC [4, 12]: 6.25 µg/mL | MIC ([4]; LYM broth, pH 4.5): 3.13 µg/mL | MIC ([4]; LYM broth, pH 5.5): 3.13 µg/mL | MIC ([4]; LYM broth, pH 6.5): 3.13 µg/mL | MIC [4, 13]: 12.5 µg/mL | MIC [5, 8]: 1.56 µg/mL | MIC ([5]; LYM broth, 0.5 mM MgCl2): 1.56 µg/mL | MIC ([5]; LYM broth, 1.5 mM MgCl2): 1.56 µg/mL | MIC ([5]; LYM broth, 2.5 mM MgCl2): 1.56 µg/mL | MIC [5, 9]: 1.56 µg/mL | MIC [5, 10]: 3.13 µg/mL | MIC [5, 11]: 3.13 µg/mL | MIC [5, 12]: 6.25 µg/mL | MIC ([5]; LYM broth, pH 4.5): 3.13 µg/mL | MIC ([5]; LYM broth, pH 5.5): 1.56 µg/mL | MIC ([5]; LYM broth, pH 6.5): 1.56 µg/mL | MIC [5, 13]: 3.13 µg/mL | MIC [6, 8]: 1.56 µg/mL | MIC ([6]; LYM broth, 0.5 mM MgCl2): 1.56 µg/mL | MIC ([6]; LYM broth, 1.5 mM MgCl2): 1.56 µg/mL | MIC ([6]; LYM broth, 2.5 mM MgCl2): 1.56 µg/mL | MIC [6, 9]: 1.56 µg/mL | MIC [6, 10]: 3.13 µg/mL | MIC [6, 11]: 3.13 µg/mL | MIC [6, 12]: 6.25 µg/mL | MIC ([6]; LYM broth, pH 4.5): 3.13 µg/mL | MIC ([6]; LYM broth, pH 5.5): 1.56 µg/mL | MIC ([6]; LYM broth, pH 6.5): 1.56 µg/mL | MIC [6, 13]: 3.13 µg/mL | GM G− (geometric mean of the MIC values) [7]: 2.1 µg/mL | Therapeutic Index (TI) G− ([7]; HC10/GM, Gram-negative bacteria): 34.5
